What was measured:
MRSA 1 [CCARM 3089] = type: cell-based, methicillin-resistant Staphylococcus aureus; conditions: CCARM 3089, 20 h
Description: (§1) The antimicrobial activity of the peptides against two Gram-positive bacterial strains and two Gram-negative bacterial strains was examined using the broth microdilution method in sterile 96-well plates. Aliquots (100 µL) of a bacterial suspension at 2×10^6 colony-forming units (CFU)/mL in 1% peptone were added to 100 µL of the peptide solution (serial two-fold dilutions in 1% peptone). After incubation for 18−20 h at 37°C, bacterial growth inhibition was determined by measuring the absorbance at 600 nm with a Microplate Autoreader EL 800 (Bio-Tek Instruments, VT). The minimal inhibitory concentration (MIC) was defined as the minimum peptide concentration inhibited bacteria growth. Two types of Gram-positive bacteria (S. epidermidis [KCTC 1917] and S. aureus [KCTC 1621]) and two types of Gram-negative bacteria (E. coli [KCTC 1682] and P. aeruginosa [KCTC 1637]) were procured from the Korean Collection for Type Cultures (KCTC) at the Korea Research Institute of Bioscience and Biotechnology (KRIBB). MRSA samples (CCARM 3089, CCARM 3090, and CCARM 3095) were obtained from the Culture Collection of Antibiotic-Resistant Microbes (CCARM) at Seoul Women's University (Seoul, Korea).

MRSA 2 [CCARM 3090] = type: cell-based, methicillin-resistant Staphylococcus aureus; conditions: CCARM 3090, 20 h
Description: as §1

MRSA 3 [CCARM 3095] = type: cell-based, methicillin-resistant Staphylococcus aureus; conditions: CCARM 3095, 20 h
Description: as §1

[1] = test system: hRBCs versus four bacterial strains; experiment: Prokaryotic selectivity (therapeutic index, HC10/GM); conditions: ratio of HC10 to GM; 512 µg/mL used for HC10 >256 and 128 µg/mL for MIC >64
Description: (§2) The prokaryotic selectivity of our designed HDAMPs is defined by the therapeutic index (TI) as a measure of the relative safety of the drug. It is a measure of a peptide's capability to differentiate any pathogen from a host cell. The TI value of each peptide was calculated as the ratio of the HC10 (the peptide concentration that produces 10% hemolysis toward hRBCs) to the geometric mean [GM; the geometric mean of the minimal inhibitory concentration (MIC) against four selected bacterial strains]. Larger values of TI correspond to greater prokaryotic selectivity.

[2] = test system: S. epidermidis [KCTC 1917]; type: cell-based, Staphylococcus epidermidis; conditions: KCTC 1917, 20 h
Description: as §1

[3] = test system: four bacterial strains (E. coli, P. aeruginosa, S. epidermidis, S. aureus); type: cell-based; conditions: 20 h
Description: as §2, §1

E. coli [KCTC 1682] = type: cell-based, Escherichia coli; conditions: KCTC 1682, 20 h
Description: as §1

[4] = test system: P. aeruginosa [KCTC 1637]; type: cell-based, Pseudomonas aeruginosa; conditions: KCTC 1637, 20 h
Description: as §1

trypsin [5] = experiment: Protease stability by RP HPLC; type: in vitro ADME; conditions: 5 µL of 10 mg/mL peptide in 25 µL of 0.2-µg/mL trypsin in PBS, 37°C, 0, 0.5, 1.0, 2.0 and 4 h; C18 RP-HPLC, 224 nm
Description: Five microliters of an aqueous peptide stock solution (10 mg/mL) were added to 25 µL of the 0.2-µg/mL trypsin solution in PBS, respectively, and incubated at 37°C for 0, 0.5, 1.0, 2.0, and 4 h. The 5-µL solution was taken out at each time interval and immediately frozen with liquid nitrogen. Individually thawed samples were loaded onto a C18 reverse-phase column for HPLC analysis (5 µm; 4.6 mm ×250 mm; Vydac). Peptides were eluted by a 60-min linear gradient of 0–90% (v/v) acetonitrile in water containing 0.05% (v/v) trifluoroacetic acid with a flow rate of 1 mL/min and detection of 224 nm.

S. aureus [KCTC 1621] = type: cell-based, Staphylococcus aureus; conditions: KCTC 1621, 20 h
Description: as §1

trypsin [6] = experiment: Protease stability by radial diffusion assay; type: in vitro ADME; conditions: 5 µL of 10 mg/mL peptide in 25 µL of 0.2-µg/mL trypsin in PBS, 37°C, text: 24 h, method: 6 h
Description: E. coli (KCTC 1682) was grown overnight for 18 h at 37°C in 10 mL of LB broth, and then 10 µl of this culture was inoculated into 10 mL of fresh LB and incubated for an additional 3 h at 37°C to obtain mid-logarithmic-phase organisms. For the radial diffusion assay method, a bacteria suspension (2×10^6 CFU/mL in LB) was mixed with 0.7% agarose. The mixture was poured into a 10-cm petri dish after rapidly dispersing. Five microliters of an aqueous peptide stock solution (10 mg/mL) were added to 25 µL of the 0.2-µg/mL trypsin solution in PBS, respectively, and incubated at 37°C for 6 h. The reaction was stopped by freezing with liquid nitrogen, and then 10-µL aliquots were placed in each circle paper (≈6 mm in diameter) put on the agarose plates and then incubated at 37°C overnight. The diameters of the bacterial clearance zones surrounding the circle paper were measured for the quantitation of inhibitory activities.

Row | SMILES | Minimal Inhibitory Concentration (MIC) MRSA 1 [CCARM 3089] (MRSA 1 [CCARM 3089]) | Minimal Inhibitory Concentration (MIC) MRSA 2 [CCARM 3090] (MRSA 2 [CCARM 3090]) | Minimal Inhibitory Concentration (MIC) MRSA 3 [CCARM 3095] (MRSA 3 [CCARM 3095]) | TI (HC10/GM), therapeutic index [1] | Minimal Inhibitory Concentration (MIC) S. epidermidis [KCTC 1917] [2] | GM, geometric mean of the MIC values against four bacterial strains [3] | Minimal Inhibitory Concentration (MIC) E. coli [KCTC 1682] (E. coli [KCTC 1682]) | Minimal Inhibitory Concentration (MIC) P. aeruginosa [KCTC 1637] [4] | resistance to proteolysis by trypsin, remaining peptide by RP-HPLC (in words) (trypsin [5]) | Minimal Inhibitory Concentration (MIC) S. aureus [KCTC 1621] (S. aureus [KCTC 1621]) | antimicrobial activity against E. coli (KCTC 1682) in the presence of trypsin (in words) (trypsin [6])
1 | N=C(N)NCCC[C@H](NC(=O)[C@H](Cc1c[n+](CCCCCCCc2ccccc2)cn1CCCCCCCc1ccccc1)NC(=O)[C@@H](N)CCCNC(=N)N)C(N)=O [HDAMP-1, Arg-His((CH2)7C6H5)2-Arg-NH2] | 2 (2.5) µg/mL | 2 (2.5) µg/mL | 2 (2.5) µg/mL | 10.3 | 2 (2.5) µg/mL | 3.5 (4.3) µg/mL | 4 (4.9) µg/mL | 4 (4.9) µg/mL | fully resistant | 4 (4.9) µg/mL | –
2 | N=C(N)NCCC[C@H](NC(=O)[C@@H](N)Cc1c[n+](CCCCCCCc2ccccc2)cn1CCCCCCCc1ccccc1)C(N)=O [HDAMP-3] | 2 (3) µg/mL | 2 (3) µg/mL | 2 (3) µg/mL | 6.3 | 2 (3) µg/mL | 3 (4.6). µg/mL | 4 (6.1) µg/mL | 4 (6.1) µg/mL | fully resistant | 2 (3) µg/mL | –
3 | N=C(N)NCCC[C@@H](N)C(=O)N[C@@H](Cc1c[n+](CCCCCCCc2ccccc2)cn1CCCCCCCc1ccccc1)C(=O)N[C@H](CCCNC(=N)N)C(N)=O [HDAMP-5] | 8 (9.8) µg/mL | 8 (9.8) µg/mL | 8 (9.8) µg/mL | 10.8 | 8 (9.8) µg/mL | 12.0 (14.7) µg/mL | 16 (19.6) µg/mL | 16 (19.6) µg/mL | fully resistant | 8 (9.8) µg/mL | –
4 | N=C(N)NCCC[C@@H](NC(=O)[C@@H](N)Cc1c[n+](CCCCCCCc2ccccc2)cn1CCCCCCCc1ccccc1)C(N)=O [HDAMP-6] | 2 (3) µg/mL | 2 (3) µg/mL | 2 (3) µg/mL | 8 | 4 (6.1) µg/mL | 3.5 (5.3) µg/mL | 4 (6.1) µg/mL | 4 (6.1) µg/mL | fully resistant | 2 (3) µg/mL | –
5 | CC[C@H](C)[C@H](NC(=O)[C@H](CCCCN)NC(=O)[C@H](CCC(=O)O)NC(=O)[C@H](CCCCN)NC(=O)[C@H](CO)NC(=O)[C@H](CCCCN)NC(=O)[C@H](CCCNC(=N)N)NC(=O)[C@H](Cc1ccccc1)NC(=O)[C@H](Cc1ccccc1)NC(=O)[C@H](CC(=O)O)NC(=O)CNC(=O)[C@H](CC(C)C)NC(=O)[C@@H](N)CC(C)C)C(=O)NCC(=O)N[C@@H](CCCCN)C(=O)N[C@@H](CCC(=O)O)C(=O)N[C@@H](Cc1ccccc1)C(=O)N[C@@H](CCCCN)C(=O)N[C@@H](CCCNC(=N)N)C(=O)N[C@H](C(=O)N[C@H](C(=O)N[C@@H](CCC(N)=O)C(=O)N[C@@H](CCCNC(=N)N)C(=O)N[C@H](C(=O)N[C@@H](CCCCN)C(=O)N[C@@H](CC(=O)O)C(=O)N[C@@H](Cc1ccccc1)C(=O)N[C@@H](CC(C)C)C(=O)N[C@@H](CCCNC(=N)N)C(=O)N[C@@H](CC(N)=O)C(=O)N[C@@H](CC(C)C)C(=O)N[C@H](C(=O)N1CCC[C@H]1C(=O)N[C@@H](CCCNC(=N)N)C(=O)N[C@H](C(=O)N[C@@H](CCC(=O)O)C(=O)N[C@@H](CO)C(=O)O)[C@@H](C)O)C(C)C)[C@@H](C)CC)C(C)C)[C@@H](C)CC [LL-37] | – | – | – | – | – | – | – | – | – | – | completely lost their antimicrobial activities
6 | CC[C@H](C)[C@H](NC(=O)CN)C(=O)NCC(=O)N[C@@H](C)C(=O)N[C@H](C(=O)N[C@@H](CC(C)C)C(=O)N[C@@H](CCCCN)C(=O)N[C@H](C(=O)N[C@@H](CC(C)C)C(=O)N[C@H](C(=O)N[C@H](C(=O)NCC(=O)N[C@@H](CC(C)C)C(=O)N1CCC[C@H]1C(=O)N[C@@H](C)C(=O)N[C@@H](CC(C)C)C(=O)N[C@H](C(=O)N[C@@H](CO)C(=O)N[C@@H](Cc1c[nH]c2ccccc12)C(=O)N[C@H](C(=O)N[C@@H](CCCCN)C(=O)N[C@@H](CCCNC(=N)N)C(=O)N[C@@H](CCCCN)C(=O)N[C@@H](CCCNC(=N)N)C(=O)N[C@@H](CCC(N)=O)C(=O)N[C@@H](CCC(N)=O)C(N)=O)[C@@H](C)CC)[C@@H](C)CC)[C@@H](C)O)[C@@H](C)O)C(C)C)C(C)C [melittin] | – | – | – | – | – | – | – | – | – | – | completely lost their antimicrobial activities

— paper PMC3841161, “De Novo Design and Synthesis of Ultra-Short Peptidomimetic Antibiotics Having Dual Antimicrobial and Anti-Inflammatory Activities” (PLoS ONE, 2013)
